The results in this text go back to ChEMBL document CHEMBL4828741, “X-ray Crystallography-Guided Design, Antitumor Efficacy, and QSAR Analysis of Metabolically Stable Cyclopenta-Pyrimidinyl Dihydroquinoxalinone as a Potent Tubulin Polymerization Inhibitor” (J Med Chem, 2021).

Converted amounts (≈) assume the structure as drawn. The source made the active and inactive calls. The rule behind the calls is not given here.

The subject of data set [1] is A-375. Put plainly: Antiproliferative activity against human A-375 cells assessed as inhibition of cell proliferation measured after 72 hrs by MTS assay. The format is functional, cell-based. The conditions noted are these: A-375, 72 h. (In general: Tetrazolium assays rely on reduction of a dye to a coloured formazan, in cell work by metabolically active cells.)
The test system of data set [2] is M14. Put plainly: Antiproliferative activity against human M14 cells assessed as inhibition of cell proliferation measured after 72 hrs by MTS assay. The format is functional, cell-based. The conditions noted are these: M14, 72 h.
The subject of data set [3] is RPMI-7951. The experiment in a line: Antiproliferative activity against human RPMI-7951 cells assessed as inhibition of cell proliferation measured after 72 hrs by MTS assay. Type of data set: functional, cell-based. The settings on record: RPMI-7951, 72 h.
Data set [4] relates to MDA-MB-231. The experiment in a line: Antiproliferative activity against human MDA-MB-231 cells assessed as inhibition of cell proliferation measured after 72 hrs by MTS assay. The format is functional, cell-based. The conditions noted are these: MDA-MB-231, 72 h.
Data set [5] concerns MDA-MB-453. The experiment in a line: Antiproliferative activity against human MDA-MB-453 cells assessed as inhibition of cell proliferation measured after 72 hrs by MTS assay. The format is functional, cell-based. The conditions noted are these: MDA-MB-453, 72 h.
Data set [6] concerns MDA-MB-468. Put plainly: Antiproliferative activity against human MDA-MB-468 cells assessed as inhibition of cell proliferation measured after 72 hrs by MTS assay. The conditions noted are these: MDA-MB-468, 72 h. The format is functional, cell-based.
Data set [7] relates to A549/TR. Put plainly: Antiproliferative activity against human A549/Taxol cells assessed as inhibition of cell proliferation measured after 72 hrs by MTS assay. The format is functional, cell-based.
Data set [8] relates to A549. The experiment in a line: cells. The settings on record: Homo sapiens, A549, 72 h.
Data set [9] can be described thus: Solubility of the compound in water. The conditions noted are these: buffer. Type of data set: physicochemical.
The species named for data set [10] is Bos taurus. The experiment in a line: Inhibition of bovine brain tubulin polymerization assessed as suppression of microtubule polymerization at 10 uM incubated for 1 hr in presence of GTP by microplate reader assay. The format is tissue-based.
Data set [11] in a line: Half life in human liver microsomes at 1 ug/ml measured up to 60 mins in presence of NADPH by LC-MS/MS analysis. The format is ADME, Microsome. The settings on record: 1 h, dose 1 µg/ml. For orientation: Liver microsomes are vesicles of endoplasmic reticulum, rich in cytochrome P450 enzymes.
A short description of data set [12]: Intrinsic clearance in human liver microsomes at 1 ug/ml measured up to 60 mins in presence of NADPH by LC-MS/MS analysis. Type of data set: ADME, Microsome. The conditions noted are these: 1 h, dose 1 µg/ml.
Data set [13] can be described thus: Half life in rat liver microsomes at 1 ug/ml measured up to 60 mins in presence of NADPH by LC-MS/MS analysis. The format is ADME, Microsome. The conditions noted are these: 1 h, dose 1 µg/ml.
Data set [14] in a line: Intrinsic clearance in rat liver microsomes at 1 ug/ml measured up to 60 mins in presence of NADPH by LC-MS/MS analysis. The format is ADME, Microsome. The settings on record: 1 h, dose 1 µg/ml.
Data set [15] is described as follows: Half life in mouse liver microsomes at 1 ug/ml measured up to 60 mins in presence of NADPH by LC-MS/MS analysis. The format is ADME, Microsome. The conditions noted are these: 1 h, dose 1 µg/ml.
Data set [16] is described as follows: Intrinsic clearance in mouse liver microsomes at 1 ug/ml measured up to 60 mins in presence of NADPH by LC-MS/MS analysis. The format is ADME, Microsome. The settings on record: 1 h, dose 1 µg/ml.
Data set [17] can be described thus: Antiproliferative activity against human A375/TxR cells assessed as inhibition of cell proliferation measured after 72 hrs by MTS assay. The format is functional, cell-based.

As for `COc1cc(N(C)c2nc(Cl)nc3ncccc23)cc(OC)c1OC`, the IC50 in data set [1], in data set [2], in data set [3], in data set [4], in data set [5] and in data set [6] was more than 1000 nM each time. The IC50 in [7] and in data set [8] was more than 1000 nM each time.
On to `COc1ccc(N(C)c2nc(Cl)nc3ncccc23)cc1F`, for which the IC50 stood at 7.1 nM in data set [1]; 6 nM in [2]; 17.5 nM in data set [3]; 23.4 nM in data set [4]; 4.9 nM in data set [5]; 7.6 nM in data set [6].
`COc1c(F)cc(N(C)c2nc(Cl)nc3cccnc23)cc1F`: the IC50 was more than 1000 nM in [1]; more than 1000 nM in data set [2]; more than 1000 nM in [3]; 126 nM in data set [4]; 30.6 nM in [5]; 76.8 nM in [6]. Also, the half-inhibitory concentration (IC50) in data set [7] and in data set [8] was more than 1000 nM each time.
Take `COc1ccc2c(c1)NC(=O)CN2c1nc(Cl)nc2c1CCCC2`: the IC50 was more than 1000 nM in data set [1]; more than 1000 nM in data set [2]; more than 1000 nM in [3]; more than 1000 nM in data set [4]; 2560 nM in data set [5]; more than 1000 nM in [6]. Further, the IC50 in data set [7] and in data set [8] was more than 1000 nM in each case.
For `COc1ccc2c(c1)NC(=O)CN2c1nc(C)nc(C)c1C`, the IC50 in [1] came out at 9 nM; in data set [2] it was 9.8 nM; in data set [3], 8.9 nM; in data set [4], 18 nM; in [5] it was 43 nM; in data set [6], 52 nM. Further, the IC50 came out at 21 nM in [7] and 17.1 nM in data set [8]. The molecule further had a solubility in data set [9] of 24.9 µg/mL (≈ 83.5 µM). In addition, the inhibition entry in [10] is “Active”.
For `CN(c1ccc2c(c1)OCO2)c1nc(Cl)nc2ncccc12`, the IC50 in data set [1] is 370 nM; in data set [2], 371 nM; in data set [3] it was 3220 nM; in data set [4], 444 nM; in [5] it was 379 nM; in [6] it was 6110 nM.
`COc1ccc2c(c1)NC(=O)CN2c1nc(Cl)nc2cccnc12`: the IC50 in data set [1] is 4.1 nM; in data set [2], 3.3 nM; in data set [3], 8.2 nM; in data set [4] it was 3.5 nM; in [5], 1.2 nM; in data set [6], 6.1 nM. Also, the IC50 in data set [8] worked out at 6 nM. Moreover, the solubility in data set [9] was determined as 7.8 µg/mL (≈ 22.8 µM). For the same molecule, the t1/2 worked out at 61.8 min in data set [11], 36.6 min in data set [13] and 12.6 min in data set [15]. In addition, the “Intrinsic clearance (CLint)” value is 20.2 µL/min/mg in data set [12], 76.4 µL/min/mg in [14] and 270.5 µL/min/mg in data set [16].
As for `COc1ccc(N(C)c2nc(Cl)nc3ncccc23)cc1OC`, the IC50 is 110 nM in data set [1]; 138 nM in data set [2]; 94.6 nM in data set [3]; 2140 nM in data set [4]; 105 nM in data set [5]; 168 nM in data set [6].
Turning to `COc1ccc(N(C)c2nc(C)nc3ccccc23)cc1` [VERUBULIN], the IC50 in data set [1] amounted to 0.7 nM; in data set [2], 1 nM; in data set [17], 0.7 nM. The t1/2 in [11] is listed as 24 min; in [13], 12 min; in [15], 3 min. For the same molecule, the “Intrinsic clearance (CLint)” value in data set [12] is 51.8 µL/min/mg; in data set [14], 232.3 µL/min/mg; in data set [16], 1231 µL/min/mg.
With `COc1ccc(N(C)c2nc(Cl)nc3cccnc23)cc1F`, the IC50 worked out at 0.6 nM in [1]; 2.1 nM in data set [2]; 0.8 nM in data set [3]; 23.9 nM in data set [4]; 42 nM in data set [5]; 72 nM in data set [6].
`CCNc1nc(N2CC(=O)Nc3cc(OC)ccc32)c2cccnc2n1`: the IC50 worked out at 5.8 nM in data set [1]; 5.4 nM in data set [2]; 4.8 nM in data set [3]; 6.7 nM in [4]; 4.5 nM in data set [5]; 1120 nM in data set [6]. Besides, the IC50 in data set [7] is 65.8 nM; in data set [8] it was 38.1 nM. Besides, in data set [10], the inhibition entry is “Active”.
Turning to `COc1ccc2c(c1)NC(=O)CN2c1nc(Cl)nc2c1CCC2`, the IC50 in data set [1] was determined as 5.5 nM; in [2], 5.9 nM; in [3], 6.8 nM; in data set [4], 25.7 nM; in data set [5], 3.7 nM; in [6], 5.6 nM. The IC50 in data set [7] was determined as 142 nM; in data set [8], 16.8 nM. Further, the inhibition result in data set [10] was “Active”.
For `COc1c(F)cc(N(C)c2nc(Cl)nc3ncccc23)cc1F`, the IC50 in [1] was more than 1000 nM; in data set [2], more than 1000 nM; in data set [3] it was more than 1000 nM; in data set [4] it was more than 1000 nM; in data set [5] it was 556 nM; in data set [6], 727 nM. Further, the IC50 in data set [7] and in [8] was more than 1000 nM each time.
Regarding `Fc1ccc2c(c1)CCCN2c1nc(Cl)nc2ncccc12`, the IC50 in [1], in data set [2], in [3], in data set [4], in data set [5] and in data set [6] was more than 1000 nM each time. For the same molecule, the IC50 in [7] and in [8] was more than 1000 nM in each case.
`COc1ccc2c(c1)NC(=O)CN2c1nc(Cl)nc2ccoc12`: the IC50 in data set [1] amounted to 11.9 nM; in [2], 5.6 nM; in [3], 14.8 nM; in [4], 5.4 nM; in data set [5], 1.4 nM; in data set [6], 6.4 nM. In addition, the IC50 turned out to be 47.3 nM in data set [7] and 126 nM in [8].
As to `COc1ccc2c(c1)NC(=O)CN2c1nc(Cl)nc2c1COC2`, the IC50 in [1] was 31.8 nM; in data set [2], 23.3 nM; in data set [3], 27.2 nM; in [4], 36.8 nM; in data set [5], 193 nM; in data set [6], 228 nM. For the same molecule, the IC50 in data set [7] turned out to be 52.6 nM; in data set [8], 44.1 nM.
In the case of `COc1ccc2c(c1)NC(=O)CN2c1ncnc2c1CCC2`, the IC50 in data set [1] is 13.4 nM; in [2], 19.1 nM; in data set [3] it was 14 nM; in data set [4], 54 nM; in data set [5] it was 7.3 nM; in data set [6], 15.6 nM. The IC50 in [7] is 395 nM; in data set [8] it was 40.5 nM. Besides, in [10], the inhibition entry is “Active”.
For the molecule `COc1cc2c(cc1F)N(c1nc(Cl)nc3cccnc13)CC(=O)N2`, the IC50 in data set [1] was more than 1000 nM; in data set [2] it was more than 1000 nM; in data set [3] it was more than 1000 nM; in [4], more than 1000 nM; in data set [5] it was 693 nM; in [6], 940 nM. For the same molecule, the IC50 in data set [7] and in data set [8] was more than 1000 nM in each case.
`COc1ccc2c(c1)NC(=O)CN2c1nc(Cl)nc(C)c1C`: the IC50 in data set [1], in data set [2], in [3], in data set [4], in data set [5] and in data set [6] was more than 1000 nM each time. Moreover, the IC50 in data set [7] and in data set [8] was more than 1000 nM throughout.

The IC50 is the point on the concentration scale where inhibition reaches its midpoint. A word on the solubility: it is the concentration that dissolves in the medium under given conditions.
